These compounds were tested on 2.2.15 cells (assay: neutral red dye uptake cytotoxicity). Conditions: 9 days treatment, read-out: 50% Cell Death CC50.
Type: cell-based
Protocol: Further, the antiviral effect of any compound must be measured against its toxicity. Cytotoxicity is measured by the neutral red uptake method using the same cells used for antiviral activity.
2b. Compounds were prepared for toxicity treatment as follows: For each compound, a total of 4 concentrations were examined. This required 9 sets of 4 sterile, 1.1 ml minitubes (36 tubes per compound). Into the first tube of each set, sufficient compound was aliquoted to make up 465 μl of the highest test concentration. The other tubes were left empty. The tubes were covered with the rack lids, and stored at −20° C. or at an appropriate temperature. Tubes for the last day of treatment for toxicity testing contain the same amount of compound as used the previous days (not 3xas for the antiviral assays).
3b. The cytotoxicity of test compounds was analyzed in a 3.3-fold dilution series as follows. […] (155 μl×3) of RP2 were added to the first tube (containing the aliquot of compound) and 310 μL (155 μl×2) RP2 to each of the 3 remaining tubes. 150 μl of test compound-containing medium were serially transferred from the first tube to the other 3 tubes.
5. A single plate was used for the toxicity treatments for each test compound (up to 7 compounds per plates since the top row were reserved for untreated cells on every toxicity plate). To initiate the treatments, the culture medium was removed, and 100 μl of each dilution of every compound were added to each of 3 wells using a configuration similar to that shown above for the antiviral treatments. The untreated cells received 100 μl RP2 per well. Treatment was repeated daily for 9 days.
The antiviral effect of any compound was evaluated relative to its toxicity. Cells were seeded and treated following the guidelines above, after which a neutral red dye uptake assay was performed to assess toxicity as described below. Other assays of cytotoxicity (e.g., MTT) can be substituted for the procedure described below. Note that this procedure assesses toxicity under culture and treatment conditions which are identical to those used for the antiviral analyses, thereby permitting a determination as to whether the reduction in virus production due to a specific antiviral effect or due to a cytotoxic effect on the host cell. Since the cultures, by necessity, are at confluence, the cytotoxic effects of the test compounds will probably be reduced relative to the cytotoxic effects that would be expected for actively dividing cells.
1. Cultures were treated with test compounds on the designated toxicity plates as described above.
2. The culture medium was carefully removed 24 hours following the 9th day of treatment. The monolayer was fully removed in the top left three wells (row A, col. 1-3). These wells were used as “blanks” for the plate reader.
3. 100 μl DPBS (containing 0.01% neutral red dye) were added to each well, including the empty wells, and Incubated in the tissue culture incubator for 30 minutes.
4. The dye was removed carefully and gently, using a multichannel pipetman since the monolayers can become fragile after incubation with neutral red dye. 200 μl DPBS were added to all the wells taking care not to displace the monolayers. The DPBS was removed and 100 μl 50% EtOH/1% glacial acetic acid (in H2O) were added to each well. The plates were mixed for 15 minutes on an orbital platform shaker (120-150 RPM) to allow for full extraction of the dye from the cells.
5. Optical absorbance at 510 nm was read in an ELISA type plate reader, using the 3 empty wells to set the background. An average absorbance value was calculated for the 9 untreated cultures on a plate, and the absorbance of dye for the treated cultures on the same plate was expressed as a percentage of that value. This procedure was repeated for each individual plate. […]

Row | SMILES | CC50
1 | COc1ccccc1C=NNc1nc(NCc2ccccc2)nc(Nc2ccccc2)n1 [Compound 195] | 400 µM
2 | CN(C)c1nc(NCc2ccccc2)nc(NCc2cccs2)n1 [Compound 192] | 739 µM
3 | Cc1ccc(Nc2nc(NN=Cc3ccccc3O)nc(Nc3ccc([N+](=O)[O-])cc3)n2)cc1C [Compound 12] | 77 µM
4 | COc1c(Br)cc(Br)cc1C=NNc1nc(Nc2ccccc2)nc(N2CCCCC2)n1 [Compound 14] | > 100 µM
5 | COc1ccc(Nc2nc(NN=Cc3ccc(O)cc3O)nc(Nc3ccccc3)n2)cc1 [Compound 158] | 112 µM
6 | CCN(CC)CCNc1ccc2c3c(cccc13)C(=O)N(Nc1nc(NCc3ccccc3)nc(N(CC)CC)n1)C2=O [Compound 27] | > 300 µM
7 | Cc1ccccc1Nc1nc(NN=Cc2ccc(I)cc2)nc(Nc2ccc([N+](=O)[O-])cc2)n1 [Compound 10] | > 300 µM
8 | Brc1cccc(C=NNc2nc(Nc3ccccc3)nc(N3CCOCC3)n2)c1 [Compound 163] | 150 µM
9 | COc1ccc(Nc2nc(NN=Cc3ccc(Cl)cc3)nc(Nc3ccccc3)n2)cc1 [Compound 22] | 47 µM
10 | Cc1ccc(Nc2nc(NN=Cc3cc(I)ccc3O)nc(Nc3ccccc3)n2)c(C)c1 [Compound 159] | 101 µM
11 | COc1ccc(Nc2nc(NN=Cc3ccc(OC)cc3OC)nc(Nc3ccccc3)n2)cc1 [Compound 20] | 7.1 µM
12 | Oc1ccc2ccccc2c1C=NNc1nc(Nc2cccc3ccccc23)nc(N2CCOCC2)n1 [Compound 167] | 161 µM
13 | CCCCN(CCCC)c1nc(NN=Cc2ccc(Cl)cc2)nc(Nc2ccc([N+](=O)[O-])cc2)n1 [Compound 16] | 304 µM
14 | CN(C)c1nc(NCc2ccccc2)nc(NN=Cc2ccc(Cl)cc2Cl)n1 [Compound 224] | > 300 µM
15 | Cc1ccc(Nc2nc(NN=Cc3cccc(I)c3)nc(Nc3ccccc3)n2)cc1 [Compound 30] | 230 µM
16 | CCCCN(CCCC)c1nc(NN=Cc2ccc3c(c2)OCO3)nc(Nc2ccc([N+](=O)[O-])cc2)n1 [Compound 11] | 27 µM
17 | CCN(CC)c1nc(NN=Cc2ccc([N+](=O)[O-])cc2)nc(Nc2ccccc2)n1 [Compound 13] | > 300 µM
18 | COc1ccc(Nc2nc(NN=Cc3cc(Br)cc(Br)c3O)nc(N3CCOCC3)n2)cc1 [Compound 200] | 309 µM
19 | COc1ccc(Nc2nc(NN=Cc3ccc(O)cc3O)nc(N3CCOCC3)n2)cc1 [Compound 164] | 201 µM
20 | Cc1ccc(Nc2nc(NN=Cc3cccc([N+](=O)[O-])c3)nc(Nc3ccccc3)n2)c(C)c1 [Compound 229] | 237 µM
21 | COc1c(C=NNc2nc(Nc3ccccc3)nc(Nc3ccccc3)n2)ccc(Br)c1O [Compound 168] | > 300 µM

Row | SMILES | CC50
22 | Ic1cccc(C=NNc2nc(Nc3ccc4ccccc4c3)nc(N3CCOCC3)n2)c1 [Compound 166] | 252 µM
23 | O=[N+]([O-])c1ccc(Nc2nc(NCc3ccccc3)nc(NN=Cc3ccccc3)n2)cc1 [Compound 24] | 75 µM
24 | Cc1ccc(Nc2nc(NN=Cc3ccccc3)nc(Nc3ccccc3)n2)c(C)c1 [Compound 7] | 29 µM
25 | Cc1ccc(C=NNc2nc(Nc3ccc([N+](=O)[O-])cc3)nc(Nc3ccccc3C)n2)cc1 [Compound 15] | 0.6 µM
26 | CCCCN(CCCC)c1nc(NN=Cc2ccc([N+](=O)[O-])cc2)nc(Nc2ccc([N+](=O)[O-])cc2)n1 [Compound 5] | 307 µM
27 | Cc1ccc(Nc2nc(Nc3cccc(C(F)(F)F)c3)nc(N3CCOCC3)n2)cc1C [Compound 251] | 96 µM
28 | CC(=NNc1nc(Nc2ccccc2)nc(N2CCCC2)n1)c1ccc([N+](=O)[O-])cc1 [Compound 183] | > 300 µM
29 | FC(F)(F)c1cccc(Nc2nc(Nc3ccccc3)nc(N3CCOCC3)n2)c1 [Compound 21] | 5.6 µM
30 | Cc1ccc(Nc2nc(NCc3ccccc3)nc(NN=Cc3ccc(F)cc3F)n2)cc1C [Compound 191] | 836 µM
31 | Cc1ccc(Nc2nc(NN=Cc3ccc(Cl)cc3)nc(N3CCOCC3)n2)cc1 [Compound 249] | 134 µM
32 | Cc1ccc(Nc2nc(NCc3cc(F)ccc3F)nc(Nc3ccc([N+](=O)[O-])cc3)n2)cc1C [Compound 248] | 135 µM
33 | Oc1c(Br)cc(Cl)cc1/C=N/Nc1nc(Nc2cccc(C(F)(F)F)c2)nc(N2CCOCC2)n1 [Compound 34] | 41 µM
34 | CCCCN(CCCC)c1nc(NN=Cc2ccc(OCC)c(O)c2)nc(Nc2ccc([N+](=O)[O-])cc2)n1 [Compound 23] | 145 µM
35 | Cc1ccc(Nc2nc(NN=Cc3ccc(I)cc3)nc(Nc3ccccc3)n2)c(C)c1 [Compound 113] | > 300 µM
36 | Cc1cccc(C(=O)Oc2ccc(C=NNc3nc(N4CCCCC4)nc(N4CCCCC4)n3)cc2)c1 [Compound 181] | > 300 µM
37 | C(=Cc1ccccc1)C=NNc1nc(Nc2ccccc2)nc(N2CCCC2)n1 [Compound 213] | > 300 µM
38 | O=C(NNc1nc(Nc2ccccc2)nc(Nc2cccc(C(F)(F)F)c2)n1)c1cccc(Br)c1 [Compound 220] | > 300 µM
39 | O=C(CSc1nc(SCC(=O)Nc2ccccc2C(F)(F)F)nc(SCC(=O)Nc2ccccc2C(F)(F)F)n1)Nc1ccccc1C(F)(F)F [Compound 212] | > 300 µM
40 | Cc1ccc(Nc2nc(NCc3ccccc3)nc(NN=Cc3cc(Cl)ccc3O)n2)cc1C [Compound 226] | 280 µM
41 | Cc1ccc(Nc2nc(NCc3ccccc3)nc(Nc3ccc([N+](=O)[O-])cc3)n2)cc1C [Compound 194] | 626 µM
42 | Cc1[nH]c2ccccc2c1C=NNc1nc(Nc2ccccc2)nc(Nc2ccc([N+](=O)[O-])cc2)n1 [Compound 6] | 29 µM

Row | SMILES | CC50
43 | COc1ccc(Nc2nc(NCc3cccc([N+](=O)[O-])c3)nc(NCc3cc(F)ccc3F)n2)cc1OC [Compound 225] | 281 µM
44 | COc1ccc(C=NNc2nc(NCc3ccccc3)nc(Nc3ccccc3)n2)cc1 [Compound 165] | > 300 µM
45 | CCCCN(CCCC)c1nc(N/N=C/c2cc(I)cc(I)c2O)nc(Nc2ccc([N+](=O)[O-])cc2)n1 [Compound 8] | 196 µM
46 | CCN(CC)c1nc(NN=Cc2ccc(Cl)c([N+](=O)[O-])c2)nc(Nc2cc(C)ccc2C)n1 [Compound 214] | > 300 µM
47 | Oc1ccc(Br)cc1C=NNc1nc(Nc2cccc(C(F)(F)F)c2)nc(N2CCOCC2)n1 [Compound 246] | 141 µM
48 | CNc1nc(NN=Cc2ccccc2C(F)(F)F)nc(Nc2cccc(C(F)(F)F)c2)n1 [Compound 253] | 193 µM
49 | O=[N+]([O-])c1ccc(Nc2nc(NN=Cc3ccc(Br)cc3)nc(N3CCCCCC3)n2)cc1 [Compound 117] | > 300 µM
50 | Oc1ccc(Br)cc1C=NNc1nc(Nc2cccc(Br)c2)nc(N2CCOCC2)n1 [Compound 232] | 190 µM
51 | COc1c(C=NNc2nc(NCc3ccccc3)nc(Nc3ccccc3)n2)cccc1[N+](=O)[O-] [Compound 162] | 436 µM
52 | COc1ccc(Nc2nc(NCCc3ccccc3)nc(N(C)C)n2)cc1OC [Compound 252] | 61 µM
53 | FC(F)(F)c1cccc(Nc2nc(Nc3cccc(Cl)c3)nc(N3CCOCC3)n2)c1 [Compound 247] | 136 µM
54 | CNc1nc(NN=Cc2cc(Cl)ccc2O)nc(Nc2ccccc2)n1 [Compound 245] | 137 µM
55 | O=[N+]([O-])c1ccc(Nc2nc(NCc3ccccc3)nc(N3CCOCC3)n2)cc1 [Compound 231] | 218 µM
56 | Cc1ccc(Nc2nc(NCc3ccccc3)nc(NN=Cc3cc(Br)cc(Br)c3O)n2)cc1C [Compound 219] | > 300 µM
57 | Cc1ccc(Nc2nc(NCc3ccccc3)nc(NN=Cc3ccccc3F)n2)cc1C [Compound 228] | 243 µM
58 | Cc1ccc(Nc2nc(NNC(=O)c3ccccc3O)nc(Oc3ccc([N+](=O)[O-])cc3)n2)cc1C [Compound 250] | 123 µM
59 | Cc1ccc(Nc2nc(NN=Cc3ccc(Cl)cc3)nc(N3CCOCC3)n2)cc1Cl [Compound 196] | 381 µM
60 | CC(=NNc1nc(Nc2ccccc2)nc(N2CCCC2)n1)c1ccc(F)cc1 [Compound 227] | 247 µM
61 | CCN(CC)c1nc(NN=Cc2c(O)ccc3ccccc23)nc(Nc2ccccc2)n1 [Compound 171] | 174 µM
62 | FC(F)(F)c1cccc(Nc2nc(NN=Cc3ccc(Cl)cc3)nc(N3CCOCC3)n2)c1 [Compound 120] | 45 µM
63 | Fc1cccc(C=NNc2nc(Nc3ccccc3)nc(N3CCCC3)n2)c1 [Compound 201] | > 300 µM

Reference: patent publication US6335339B1, “Triazine antiviral compounds” (Scriptgen Pharmaceuticals, Inc., priority 1998, dated 2002)
